Laboratory results reported in US20240228570A9, “PLATFORM TECHNOLOGY FOR TREATMENT OF INFLAMMATORY, IMMUNOLOGICAL AND/OR AUTOIMMUNOLOGICAL DISEASES” (ellennbe GmbH, priority 2021, published 2024).

Key:
perfusion of the skin = conditions: cited from earlier work
[1] = Adverse side effects, intolerances, incompatibilities in treated subjects and patients; format: in vivo, human; conditions: for earlier treatment with TNF-α inhibitors (patient history): Patient 12, ankylosing spondylitis; for adverse effects of earlier or basic treatment (patient history): Patient 7, rheumatoid arthritis/synovitis
[2] = test system: inflammatory disease, immunological disease and/or autoimmunological disease; assay: Treatment of patients: condition as stated by patient and physician (pain, fatigue, daily life, duration of effect, relapses); format: in vivo, human
Method: All patients treated in the following Inventive Examples, Reference Examples and Comparative Examples were selected solely based on their diagnosis without performing a preselection in view of other parameters.
Annotation to the Tables 8A and B and 9 to 10: Patients were usually examined and treated in the same session. The success of the treatment or the effect thereof was then determined in the following session, usually one week later, and the next treatment performed as indicated in the tables.

| Compound | earlier treatment with TNF-α inhibitors (patient history) [1] | adverse effects of earlier or basic treatment (patient history) [1] | further results |
| --- | --- | --- | --- |
| COC(=O)c1cccnc1 [MN, methyl nicotinate] |  |  | perfusion response of the skin (perfusion of the skin; 50 μl of 20 mmol/l MN topical, healthy subjects, Laser Speckle Contrast Imager): reproducible perfusion response; time course of the perfusion increase (perfusion of the skin; topical application of MN, increase occurs a few minutes after application): reaches a stable plateau phase after five minutes |
| Symponi®: TNF-α inhibitor | accompanied by strong adverse side effects and hence, not successful |  |  |
| tocilizumab: IL-6 inhibitor |  |  | effectiveness of earlier or basic treatment (patient history) ([2]; Patient 7, rheumatoid arthritis/synovitis, before or beside the treatment of IE 7): only partially efficient |
| CCN(CCO)CCCC(C)Nc1ccnc2cc(Cl)ccc12.O=S(=O)(O)O (stereo not shown) [Quensyl®, hydroxychloroquin sulphate] |  | can cause irreversible eye damage with long-term use |  |
| Enbrel® | accompanied by strong adverse side effects and hence, not successful |  |  |
| Remicade®: TNF-α inhibitor | accompanied by strong adverse side effects and hence, not successful |  |  |
| CN(Cc1cnc2nc(N)nc(N)c2n1)c1ccc(C(=O)N[C@@H](CCC(=O)O)C(=O)O)cc1 [MTX, methotrexate] |  | severe adverse effects (tendency to fibrosis in the lungs and sinusitis) |  |
| CC[C@@H]1CN(C(=O)NCC(F)(F)F)C[C@@H]1c1cnc2cnc3[nH]ccc3n12 [upadacitinib] |  | severe adverse effects (tendency to fibrosis in the lungs and sinusitis) |  |
| Simponi®: biologic, golimumab |  |  | effect of earlier treatment with biologics (patient's report) ([2]; Patient 11, ankylosing spondylitis, within half a year the biologics lost their effect): had little effect from the outset |
